Data on 19 compounds can be found in ChEMBL document CHEMBL4371101, “Antiproliferative Cardenolides from the Aerial Parts of Pergularia tomentosa” (J Nat Prod, 2019).

The structures appear in SMILES notation. Active and inactive are the calls of the source. The calls are words filed in the database; no cut-off is given here.

What all share (type): functional, cell-based
Assay [1] concerns PC-3. Put plainly: Antiproliferative activity against human PC3 cells after 72 hrs by MTT assay. Conditions: PC-3, 72 h. On the technique in general: Tetrazolium assays rely on reduction of a dye to a coloured formazan, in cell work by metabolically active cells.
A further assay has as its system HeLa. In words: Antiproliferative activity against human HeLa cells after 72 hrs by MTT assay.
In a further assay the test system is MCF7. In words: Antiproliferative activity against human MCF7 cells after 72 hrs by MTT assay. The following applies: MCF7, 72 h.
In a further assay the test system is Calu-1. Put plainly: Antiproliferative activity against human Calu1 cells after 72 hrs by MTT assay. Conditions: Calu-1, 72 h.
Another assay deals with U-251. Put plainly: Antiproliferative activity against human U251MG cells after 72 hrs by MTT assay. The following applies: U-251, 72 h.
Assay [2] concerns PC-3. Put plainly: Antiproliferative activity against human PC3 cells assessed as reduction in BrdU incorporation at 1 uM after 24 hrs by Hoechst staining based microscopic assay.

For `CC(=O)O[C@@H]1C[C@]2(O)[C@@H]3CC[C@H]4C[C@H]5O[C@@H]6O[C@H](C)C[C@H](O)[C@]6(O)O[C@@H]5C[C@]4(C=O)[C@H]3C[C@@H](O)[C@]2(C)[C@H]1C1=CC(=O)OC1`, the IC50 in the assay with PC-3 [1] was determined as 4200 nM; with HeLa, 500 nM; with MCF7 it was 400 nM; in the assay with Calu-1 it was 700 nM; in the assay with U-251 it was 6500 nM.

Regarding `C[C@]12CC[C@H]3[C@@H](CC[C@H]4C[C@H]5O[C@@H]6O[C@H](CO)C[C@@H](O)[C@]6(O)O[C@@H]5C[C@@]43CO)[C@@]1(O)CC[C@@H]2C1=CC(=O)OC1`, the half-maximal inhibitory concentration (IC50) with PC-3 [1] came to 3000 nM; in the assay with HeLa it was 300 nM; in the assay on MCF7 it was 200 nM; with Calu-1, 600 nM; in the assay with U-251, 1200 nM.

With `C[C@@H]1C[C@@H](O)[C@]2(O)O[C@@H]3C[C@@]4(C=O)[C@@H](CC[C@@H]5[C@@H]4C[C@@H](O)[C@]4(C)[C@@H](C6=CC(=O)OC6)CC[C@]54O)C[C@H]3O[C@@H]2O1`, the IC50 with PC-3 [1] was 300 nM; with HeLa, 2500 nM; in the assay on MCF7, 6000 nM; with Calu-1 it was 7000 nM; with U-251, 5300 nM. Further, the result in the assay on PC-3 [2] was Active.

With `C[C@@H]1C[C@@H](O)[C@]2(O)O[C@@H]3C[C@@]4(CO)[C@@H](CC[C@@H]5[C@@H]4C[C@@H](O)[C@]4(C)[C@@H](C6=CC(=O)OC6)CC[C@]54O)C[C@H]3O[C@@H]2O1`, the IC50 with PC-3 [1] was found to be 600 nM; in the assay with HeLa, 7000 nM; in the assay on MCF7, 5000 nM; in the assay on Calu-1, 6000 nM; in the assay on U-251 it was 8000 nM.

On to `C[C@]12CC[C@H](O[C@@H]3O[C@H](CO)[C@@H](O)[C@H](O)[C@H]3O)C[C@@H]1CC[C@@H]1[C@@H]2CC[C@]2(C)[C@@H](C3=CC(=O)OC3)CC[C@]12O` [DESGLUCOUZARIN], for which the IC50 in the assay on PC-3 [1] worked out at 300 nM; in the assay with HeLa, 600 nM; in the assay on MCF7, 6000 nM; in the assay with Calu-1 it was 6500 nM; in the assay on U-251, 8000 nM.

For the compound `C[C@@H]1C[C@H](O)[C@]2(O)O[C@@H]3C[C@@]4(C=O)[C@@H](CC[C@@H]5[C@@H]4C[C@@H](O)[C@]4(C)[C@@H](C6=CC(=O)OC6)CC[C@]54O)C[C@H]3O[C@@H]2O1`, the IC50 in the assay with PC-3 [1] amounted to 2100 nM; in the assay on HeLa it was 600 nM; in the assay on MCF7, 200 nM; in the assay on Calu-1 it was 600 nM; in the assay with U-251, 1000 nM.

On to `C[C@]12CC[C@H]3[C@@H](CC[C@H]4C[C@H]5O[C@@H]6O[C@H](CO)C[C@H](O)[C@]6(O)O[C@@H]5C[C@@]43C=O)[C@@]1(O)CC[C@@H]2C1=CC(=O)OC1`, for which the IC50 is 3200 nM with PC-3 [1]; 300 nM in the assay on HeLa; 1800 nM with MCF7; 1400 nM in the assay on Calu-1; 5000 nM in the assay on U-251.

`C[C@]12[C@H](O)C[C@H]3[C@@H](CC[C@H]4C[C@H]5O[C@@H]6O[C@H](CO)C[C@@H](O)[C@]6(O)O[C@@H]5C[C@@]43CO)[C@@]1(O)CC[C@@H]2C1=CC(=O)OC1` [GHALAKINOSIDE]: the IC50 in the assay on PC-3 [1] turned out to be 4200 nM; in the assay on HeLa, 900 nM; in the assay with MCF7, 600 nM; with Calu-1, 700 nM; in the assay with U-251 it was 5200 nM.

Take `C[C@]12CC[C@H](O)C[C@@H]1CC[C@@H]1[C@@H]2CC[C@]2(C)[C@@H](C3=CC(=O)OC3)CC[C@]12O`: the IC50 stood at 300 nM with PC-3 [1]; 3000 nM with HeLa; 6000 nM with MCF7; 8000 nM in the assay on Calu-1; 6000 nM in the assay on U-251.

`C[C@]12CC[C@H]3[C@@H](CC[C@H]4C[C@@H](O[C@@H]5O[C@H](CO)[C@@H](O)[C@H](O)[C@H]5O)CC[C@@]43CO)[C@@]1(O)CC[C@@H]2C1=CC(=O)OC1`: the IC50 is 1000 nM with PC-3 [1]; 300 nM with HeLa; 8000 nM with MCF7; 6000 nM in the assay on Calu-1; 6000 nM with U-251.

As to `CC(=O)O[C@@]12CO[C@@H]1C[C@H](O)[C@@]1(C)C(=O)[C@H](O)C3=C(C)[C@@H](OC(=O)[C@H](O)[C@@H](NC(=O)OC(C)(C)C)c4ccccc4)C[C@@](O)([C@@H](OC(=O)c4ccccc4)[C@H]21)C3(C)C` [DOCETAXEL ANHYDROUS], the IC50 with PC-3 [1] came to 0.6 nM; with HeLa, 0.3 nM; in the assay with MCF7, 0.5 nM; with Calu-1, 0.4 nM; in the assay with U-251, 0.7 nM.

With `C[C@]12[C@H](O)C[C@H]3[C@@H](CC[C@H]4C[C@H]5O[C@@H]6O[C@H](CO)C[C@H](O)[C@]6(O)O[C@@H]5C[C@@]43C=O)[C@@]1(O)CC[C@@H]2C1=CC(=O)OC1`, the IC50 with PC-3 [1] is 900 nM; with HeLa, 2000 nM; with MCF7 it was 2800 nM; with Calu-1, 2000 nM; with U-251, 6000 nM. For the same compound, in the assay with PC-3 [2], the result was Active.

Take `C[C@@H]1C[C@@H](O)[C@]2(O)O[C@@H]3C[C@@]4(C=O)[C@@H](CC[C@@H]5[C@@H]4CC[C@]4(C)[C@@H](C6=CC(=O)OC6)CC[C@]54O)C[C@H]3O[C@@H]2O1` [CALACTIN]: the IC50 in the assay on PC-3 [1] was 3700 nM; in the assay with HeLa, 200 nM; in the assay on MCF7 it was 200 nM; in the assay on Calu-1 it was 500 nM; with U-251, 900 nM.

With `C[C@]12[C@H](O)C[C@H]3[C@@H](CC[C@H]4C[C@H]5O[C@@H]6O[C@H](CO)C[C@@H](O)[C@]6(O)O[C@@H]5C[C@@]43C=O)[C@@]1(O)CC[C@@H]2C1=CC(=O)OC1`, the IC50 was 8900 nM in the assay on PC-3 [1]; 300 nM in the assay on HeLa; 2000 nM with MCF7; 3700 nM with Calu-1; 5500 nM with U-251.

As for `C[C@]12[C@H](O)C[C@H]3[C@@H](CC[C@H]4C[C@@H](O)CC[C@@]43CO)[C@@]1(O)CC[C@@H]2C1=CC(=O)OC1`, the IC50 with PC-3 [1] is 8400 nM; in the assay on HeLa, 900 nM; with MCF7 it was 2500 nM; in the assay with Calu-1 it was 1300 nM; in the assay with U-251 it was 5000 nM.

Take `COc1cc(/C=C/C(=O)OC[C@H]2O[C@@H](O[C@H]3CC[C@@]4(C)[C@@H](CC[C@@H]5[C@@H]4CC[C@]4(C)[C@@H](C6=CC(=O)OC6)CC[C@]54O)C3)[C@H](O)[C@@H](O)[C@@H]2O)ccc1O`: the IC50 stood at 300 nM in the assay on PC-3 [1]; 4500 nM with HeLa; 200 nM in the assay on MCF7; 6000 nM in the assay on Calu-1; 5800 nM in the assay on U-251.

`C[C@@H]1C[C@@H](O[C@@H]2O[C@H](CO)[C@@H](O)[C@H](O)[C@H]2O)[C@]2(O)O[C@@H]3C[C@@]4(C=O)[C@@H](CC[C@@H]5[C@@H]4CC[C@]4(C)[C@@H](C6=CC(=O)OC6)CC[C@]54O)C[C@H]3O[C@@H]2O1`: the IC50 in the assay on PC-3 [1] was 1000 nM; in the assay with HeLa, 600 nM; in the assay with MCF7, 200 nM; with Calu-1 it was 300 nM; in the assay on U-251 it was 4400 nM.

Consider `C[C@@H]1C[C@H](O)[C@]2(O)O[C@@H]3C[C@@]4(C=O)[C@@H](CC[C@@H]5[C@@H]4C[C@@H](O)[C@]4(C)[C@@H](C6=CC(=O)OC6)[C@H](O)C[C@]54O)C[C@H]3O[C@@H]2O1`, for which the IC50 with PC-3 [1] is 600 nM; with HeLa, 2300 nM; with MCF7, 7000 nM; in the assay with Calu-1, 4300 nM; in the assay with U-251 it was 1500 nM. In addition, the outcome in the assay with PC-3 [2] was Active.

Consider `C[C@]12CC[C@H]3[C@@H](CC[C@H]4C[C@@H](O)CC[C@@]43CO)[C@@]1(O)CC[C@@H]2C1=CC(=O)OC1` [COROGLAUCIGENIN], for which the IC50 in the assay on PC-3 [1] worked out at 400 nM; in the assay on HeLa, 4200 nM; in the assay with MCF7 it was 7000 nM; with Calu-1, 5800 nM; in the assay on U-251, 5000 nM.

The term IC50 denotes the concentration at which inhibition is half-maximal.
